Patent US8461339B2, “Pharmaceutical compounds” (Sentinel Oncology Limited, priority 2008, dated 2013)

What was measured:
[1] = biological target: T1, Flt3 (h) (Homo sapiens, UniProt P36888); test: Kinase inhibition assay, Flt3 (h) (Millipore, 33P-ATP filter assay); format: biochemical
T1 construct: purchased Millipore
T1 sequence (P36888 27-993): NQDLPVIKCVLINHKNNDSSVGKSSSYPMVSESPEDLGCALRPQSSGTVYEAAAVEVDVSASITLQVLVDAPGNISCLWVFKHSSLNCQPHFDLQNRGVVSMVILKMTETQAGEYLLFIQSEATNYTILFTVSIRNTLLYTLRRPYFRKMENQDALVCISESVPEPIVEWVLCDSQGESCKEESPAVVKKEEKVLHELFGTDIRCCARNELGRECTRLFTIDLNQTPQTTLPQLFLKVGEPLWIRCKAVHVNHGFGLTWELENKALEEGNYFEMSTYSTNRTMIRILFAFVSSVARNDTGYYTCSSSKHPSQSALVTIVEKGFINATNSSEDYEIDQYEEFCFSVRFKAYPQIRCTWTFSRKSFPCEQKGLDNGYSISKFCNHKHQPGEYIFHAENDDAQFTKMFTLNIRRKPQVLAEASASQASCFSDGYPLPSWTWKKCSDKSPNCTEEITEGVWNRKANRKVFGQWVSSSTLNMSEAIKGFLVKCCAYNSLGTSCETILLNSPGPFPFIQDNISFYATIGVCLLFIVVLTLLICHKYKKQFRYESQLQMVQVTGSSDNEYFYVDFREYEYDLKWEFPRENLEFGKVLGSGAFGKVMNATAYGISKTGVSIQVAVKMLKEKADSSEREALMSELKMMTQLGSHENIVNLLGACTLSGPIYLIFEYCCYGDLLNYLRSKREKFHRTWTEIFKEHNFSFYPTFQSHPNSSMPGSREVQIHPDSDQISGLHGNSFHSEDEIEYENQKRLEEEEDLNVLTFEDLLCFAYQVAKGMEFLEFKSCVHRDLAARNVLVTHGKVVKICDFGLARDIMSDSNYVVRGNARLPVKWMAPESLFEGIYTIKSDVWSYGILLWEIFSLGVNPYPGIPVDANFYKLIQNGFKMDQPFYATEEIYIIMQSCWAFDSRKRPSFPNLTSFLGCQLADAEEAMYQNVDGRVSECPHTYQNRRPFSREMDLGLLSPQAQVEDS
Description: (§1) Compounds of the invention can be screened for activity against a range of protein kinases using the assays set out below. Kinase inhibition assays were carried out by Millipore, Dundee Technology Park, Dundee, UK.
(§2) In a final reaction volume of 25 μL, Flt3 (h) (5-10 mU) is incubated with 8 mM MOPS pH 7.0, 0.2 mM EDTA, 50 μM EAIYAAPFAKKK, 10 mM MgAcetate and [[…]-33P-ATP] (specific activity approx. 500 cpm/pmol, concentration as required). The reaction is initiated by the addition of the MgATP mix. After incubation for 40 minutes at room temperature, the reaction is stopped by the addition of 5 μL of a 3% phosphoric acid solution. 10 μL of the reaction is then spotted onto a P30 filtermat and washed three times for 5 minutes in 75 mM phosphoric acid and once in methanol prior to drying and scintillation counting.

[2] = biological target: T2, Flt4 (h) (Homo sapiens, UniProt P35916); test: Kinase inhibition assay, Flt4 (h) (Millipore, 33P-ATP filter assay); format: biochemical
T2 construct: purchased Millipore
Description: as §1
as §2, with “μL, Flt4” for “μL, Flt3”, “EDTA, 500” for “EDTA, 50”, “μM GGEEEEYFELVKKKK,” for “μM EAIYAAPFAKKK,”

[3] = test system: HCT116 cells; test: Anti-proliferative activity, Alamar Blue assay; format: cell-based; settings: Homo sapiens, HCT-116, 72 h incubation, read-out: cell proliferation IC50
Description: The anti-proliferative activities of compounds of the invention are determined by measuring the ability of the compounds to inhibition of cell growth in a number of cell lines. Inhibition of cell growth is measured using the Alamar Blue assay
The following protocol was used: • 1) HT29, HCT116 or Colo205 cells were seeded at an appropriate density and allowed to adhere overnight. • 2) Test compounds were prepared from 10 mM DMSO stocks to give a final concentration range as shown on the graphs. DMSO was constant throughout each experiment. • 3) Test compounds were incubated with the cells for 72 h at 37° C. 5% CO2 in a humidified atmosphere. • 4) Alamar blue 10% (v/v) was then added and incubated for a further 6 h, and fluorescent product detected using the BMG FLUOstar plate reader. • 5) Data was analysed using a 4-parameter logistic equation in Graph Pad Prism.

[4] = biological target: T3, Yes (h) (Homo sapiens, UniProt P07947); test: Kinase inhibition assay, Yes (h) (Millipore, 33P-ATP filter assay); format: biochemical; settings: read-out: IC50 against Yes kinase
T3 construct: purchased Millipore
Description: as §1
as §2, with “μl, Yes” for “μL, Flt3”, “0.1 mg/ml poly(Glu, Tyr) 4:1,” for “50 μM EAIYAAPFAKKK,”, “[γ-33P-ATP]” for “[[…]-33P-ATP]”, “μl” for “μL”, “Filtermat A” for “P30 filtermat”

[5] = test system: human HT29 colon carcinoma cells; test: HT29 colony forming assay; format: cell-based; settings: HT-29, 240 h, 10 days incubation, colonies counted
Description: The ability of compounds of the invention to prevent growth of discrete colonies of human HT29 colon carcinoma cells over a 10 day time course can be measured using the following protocol: • 1. HT29 cells (ECACC No. 91072201) are seeded in 24-well plates at a concentration of 75 cells per well and allowed to adhere overnight prior to addition of compound or vehicle control. • 2. Test compounds are prepared from 10 mM DMSO stocks to give a final concentration range of 10 μM, 3 μM, 1 μM, 0.3 μM, 0.1 μM, 0.03 μM, 0.01 μM and vehicle control. The DMSO content is constant at 0.1%. • 3. Test compounds are incubated with the cells for 10 days at 37° C. 5% CO2 in a humidified atmosphere. • 4. Colonies are fixed using Carnoy's Fixative (75% methanol, 25% acetic acid) for 5 minutes, and allowed to air dry. • 5. Colonies are stained using 0.4% (w/v) crystal violet for 2 minutes. • 6. Colonies (containing more than 50 cells) are counted by eye and data analysed using a 4-parameter logistic equation in GraphPad Prism.

[6] = biological target: T4, KDR (h) (Homo sapiens, UniProt P35968); test: Kinase inhibition assay, KDR (h) (Millipore, 33P-ATP filter assay); format: biochemical; settings: read-out: IC50 against KDR kinase
T4 construct: purchased Millipore
Description: as §1
as §2, with “KDR” for “Flt3”, “0.33 mg/mL myelin basic protein,” for “50 μM EAIYAAPFAKKK,”, “Mg Acetate” for “MgAcetate”, “[γ-33P-ATP]” for “[[…]-33P-ATP]”

T2 sequence (P35916 25-1363): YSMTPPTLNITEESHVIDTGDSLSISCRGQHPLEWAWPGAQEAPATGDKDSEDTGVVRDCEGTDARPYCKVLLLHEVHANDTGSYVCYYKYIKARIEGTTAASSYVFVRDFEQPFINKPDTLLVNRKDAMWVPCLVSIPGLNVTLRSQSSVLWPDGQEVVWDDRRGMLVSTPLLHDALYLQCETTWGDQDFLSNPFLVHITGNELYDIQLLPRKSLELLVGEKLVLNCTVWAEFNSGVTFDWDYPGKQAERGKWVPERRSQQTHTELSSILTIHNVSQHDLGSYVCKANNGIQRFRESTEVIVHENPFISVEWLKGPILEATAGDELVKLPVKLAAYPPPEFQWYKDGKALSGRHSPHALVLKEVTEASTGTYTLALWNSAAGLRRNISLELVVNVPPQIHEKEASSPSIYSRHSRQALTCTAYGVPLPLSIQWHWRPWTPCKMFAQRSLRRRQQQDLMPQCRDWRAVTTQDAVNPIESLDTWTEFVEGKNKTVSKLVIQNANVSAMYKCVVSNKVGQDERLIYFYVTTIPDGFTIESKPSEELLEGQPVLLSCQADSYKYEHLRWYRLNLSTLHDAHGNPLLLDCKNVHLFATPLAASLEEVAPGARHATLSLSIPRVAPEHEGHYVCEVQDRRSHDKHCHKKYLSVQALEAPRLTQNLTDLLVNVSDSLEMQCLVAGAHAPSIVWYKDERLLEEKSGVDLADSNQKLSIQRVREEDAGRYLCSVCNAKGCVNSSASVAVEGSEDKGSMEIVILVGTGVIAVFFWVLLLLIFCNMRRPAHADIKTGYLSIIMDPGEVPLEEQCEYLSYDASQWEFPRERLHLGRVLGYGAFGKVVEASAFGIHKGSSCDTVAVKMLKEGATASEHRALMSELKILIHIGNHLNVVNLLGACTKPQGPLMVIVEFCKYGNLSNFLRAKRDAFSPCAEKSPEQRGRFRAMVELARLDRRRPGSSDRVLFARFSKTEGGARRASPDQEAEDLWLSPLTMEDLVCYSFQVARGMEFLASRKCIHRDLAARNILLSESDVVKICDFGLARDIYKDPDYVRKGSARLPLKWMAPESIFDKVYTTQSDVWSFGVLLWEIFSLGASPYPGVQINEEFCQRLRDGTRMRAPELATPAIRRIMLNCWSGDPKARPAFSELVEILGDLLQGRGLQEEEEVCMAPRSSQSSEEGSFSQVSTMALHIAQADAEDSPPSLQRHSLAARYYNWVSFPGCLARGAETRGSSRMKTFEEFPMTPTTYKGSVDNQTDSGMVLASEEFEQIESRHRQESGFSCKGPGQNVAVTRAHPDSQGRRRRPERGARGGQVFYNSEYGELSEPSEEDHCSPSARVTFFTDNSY
T3 sequence (P07947 whole entry): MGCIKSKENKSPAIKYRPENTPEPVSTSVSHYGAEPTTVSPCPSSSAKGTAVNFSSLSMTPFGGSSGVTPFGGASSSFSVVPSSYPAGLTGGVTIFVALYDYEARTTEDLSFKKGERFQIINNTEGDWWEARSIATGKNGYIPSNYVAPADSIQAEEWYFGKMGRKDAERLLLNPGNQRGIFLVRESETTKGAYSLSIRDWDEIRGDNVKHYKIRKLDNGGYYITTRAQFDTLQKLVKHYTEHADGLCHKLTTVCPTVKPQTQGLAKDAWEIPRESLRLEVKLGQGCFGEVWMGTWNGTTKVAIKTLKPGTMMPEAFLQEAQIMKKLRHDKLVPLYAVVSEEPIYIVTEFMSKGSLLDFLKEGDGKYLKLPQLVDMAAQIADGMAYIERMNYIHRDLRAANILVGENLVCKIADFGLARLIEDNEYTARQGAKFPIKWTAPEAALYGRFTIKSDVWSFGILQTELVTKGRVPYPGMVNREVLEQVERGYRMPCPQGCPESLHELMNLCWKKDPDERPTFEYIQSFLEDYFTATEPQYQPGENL
T4 sequence (P35968 20-1356): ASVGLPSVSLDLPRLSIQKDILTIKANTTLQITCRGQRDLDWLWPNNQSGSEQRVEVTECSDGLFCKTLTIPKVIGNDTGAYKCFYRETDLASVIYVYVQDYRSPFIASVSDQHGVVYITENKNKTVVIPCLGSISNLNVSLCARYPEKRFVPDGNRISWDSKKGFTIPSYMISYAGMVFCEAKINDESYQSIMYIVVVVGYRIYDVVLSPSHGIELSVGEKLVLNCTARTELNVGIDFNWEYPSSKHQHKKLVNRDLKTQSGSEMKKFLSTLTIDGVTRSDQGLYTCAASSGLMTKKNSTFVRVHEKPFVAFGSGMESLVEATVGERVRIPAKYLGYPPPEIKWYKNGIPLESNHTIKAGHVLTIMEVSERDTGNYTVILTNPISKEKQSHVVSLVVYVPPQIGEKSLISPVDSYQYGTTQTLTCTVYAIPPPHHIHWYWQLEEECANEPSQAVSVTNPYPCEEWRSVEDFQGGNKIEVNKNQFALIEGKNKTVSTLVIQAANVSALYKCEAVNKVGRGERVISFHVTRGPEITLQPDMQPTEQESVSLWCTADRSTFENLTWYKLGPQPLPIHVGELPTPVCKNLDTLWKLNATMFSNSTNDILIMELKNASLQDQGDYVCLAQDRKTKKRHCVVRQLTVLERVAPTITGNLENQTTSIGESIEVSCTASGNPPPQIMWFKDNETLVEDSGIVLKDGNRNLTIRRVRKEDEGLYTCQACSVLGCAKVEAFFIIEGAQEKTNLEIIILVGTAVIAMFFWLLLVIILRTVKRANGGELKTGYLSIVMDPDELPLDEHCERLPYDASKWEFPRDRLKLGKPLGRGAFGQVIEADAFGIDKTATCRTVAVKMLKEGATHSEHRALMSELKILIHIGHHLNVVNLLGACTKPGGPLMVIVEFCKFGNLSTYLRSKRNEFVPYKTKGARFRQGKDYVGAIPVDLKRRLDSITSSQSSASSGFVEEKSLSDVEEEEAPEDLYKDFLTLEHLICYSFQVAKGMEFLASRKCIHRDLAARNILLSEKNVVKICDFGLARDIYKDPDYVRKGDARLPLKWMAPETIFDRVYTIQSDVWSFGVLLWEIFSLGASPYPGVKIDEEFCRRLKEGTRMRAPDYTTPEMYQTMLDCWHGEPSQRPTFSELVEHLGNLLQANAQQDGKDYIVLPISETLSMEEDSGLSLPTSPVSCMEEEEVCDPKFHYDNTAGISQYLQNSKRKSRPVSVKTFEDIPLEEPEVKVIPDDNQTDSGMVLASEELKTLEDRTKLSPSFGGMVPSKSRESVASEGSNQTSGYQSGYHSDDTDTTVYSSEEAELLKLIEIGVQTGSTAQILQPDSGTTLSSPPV

IC50 [1] [nM] | IC50 [2] [nM] | IC50 [3] [µM] | IC50 [4] [µM] | IC50 [5] [nM] | IC50 [6] [µM] | SMILES
< 100 | < 500 | < 25 | < 5 | 1380 | < 5 | c1ccc2cc(Nc3cc(CN4CCCC4)ccn3)ncc2c1 [Example 1, Isoquinolin-3-yl-(4-pyrrolidin-1-ylmethyl-pyridin-2-yl)-amine]
< 100 | > 100 | – | – | – | – | Clc1ccc2cc(Nc3cc(CN4CCCC4)ccn3)ncc2c1 [Example 14, 7-Chloroisoquinolin-3-yl-(4-pyrrolidin-1-ylmethyl-pyridin-2-yl)-amine]
< 100 | < 100 | – | – | – | – | COc1ccc2cnc(Nc3cc(CN4CCCC4)ccn3)cc2c1 [Example 17, (6-Methoxy-isoquinolin-3-yl)-(4-pyrrolidin-1-ylmethyl-pyridin-2-yl)-amine]
< 100 | < 100 | – | – | – | – | Fc1ccc2cc(Nc3cc(CN4CCCC4)ccn3)ncc2c1 [Example 18, 7-Fluoroisoquinolin-3-yl-(4-pyrrolidin-1-ylmethyl-pyridin-2-yl)-amine]
< 100 | < 100 | – | – | – | – | CNC(=O)N1CCN(Cc2ccnc(Nc3cc4ccccc4cn3)c2)CC1 [Example 19, 4-[2-(Isoquinolin-3-ylamino)-pyridin-4-ylmethyl]-piperazine-1-carboxylic acid methylamide]
< 100 | < 100 | – | – | – | – | CN(C)C(=O)N1CCN(Cc2ccnc(Nc3cc4ccccc4cn3)c2)CC1 [Example 20, 4-[2-(Isoquinolin-3-ylamino)-pyridin-4-ylmethyl]-piperazine-1-carboxylic acid dimethylamide]
< 5000 | < 500 | – | – | – | – | c1ccc2cc(Nc3cc(CN4CCNCC4)ccn3)ncc2c1 [Example 21B, Isoquinolin-3-yl-(4-piperazin-1-ylmethyl-pyridin-2-yl)-amine]
< 100 | < 500 | – | – | – | – | NC(=O)N1CCN(Cc2ccnc(Nc3cc4ccccc4cn3)c2)CC1 [Example 21C, 4-[2-(Isoquinolin-3-ylamino)-pyridin-4-ylmethyl]-piperazine-1-carboxylic acid amide]
< 100 | < 500 | – | – | – | – | CC(=O)N1CCN(Cc2ccnc(Nc3cc4ccccc4cn3)c2)CC1 [Example 22, 1-[4-[2-(Isoquinolin-3-ylamino)-pyridin-4-ylmethyl]-piperazin-1-yl]-ethanone]
< 100 | < 100 | – | – | – | – | O=C(CO)N1CCN(Cc2ccnc(Nc3cc4ccccc4cn3)c2)CC1 [Example 23B, 2-Hydroxy-1-{4-[2-(isoquinolin-3-ylamino)-pyridin-4-ylmethyl]-piperazin-1-yl}-ethanone]
